≈ marks a conversion by molar mass, not a printed value.
Experiments:
Staphylococcus aureus [1] = assay: Antibacterial activity against methicillin-resistant Staphylococcus aureus clinical isolate M-3 incubated for 16 to 18 hrs CLSI based by microbroth dilution assay; type: functional; conditions: time 16-18 hrs
Staphylococcus aureus [2] = assay: Antibacterial activity against methicillin-resistant Staphylococcus aureus clinical isolate M-8 incubated for 16 to 18 hrs CLSI based by microbroth dilution assay; type: functional; conditions: time 16-18 hrs
Staphylococcus aureus [3] = assay: Antibacterial activity against methicillin-resistant Staphylococcus aureus clinical isolate M-10 incubated for 16 to 18 hrs CLSI based by microbroth dilution assay; type: functional; conditions: time 16-18 hrs
Staphylococcus aureus [4] = assay: Antibacterial activity against methicillin-resistant Staphylococcus aureus clinical isolate M-6 incubated for 16 to 18 hrs CLSI based by microbroth dilution assay; type: functional; conditions: time 16-18 hrs
Staphylococcus aureus [5] = assay: Antibacterial activity against methicillin-resistant Staphylococcus aureus clinical isolate M-7 incubated for 16 to 18 hrs CLSI based by microbroth dilution assay; type: functional; conditions: time 16-18 hrs
Staphylococcus aureus [6] = assay: Antibacterial activity against methicillin-resistant Staphylococcus aureus clinical isolate M-5 incubated for 16 to 18 hrs CLSI based by microbroth dilution assay; type: functional; conditions: time 16-18 hrs
Staphylococcus aureus [7] = assay: Antibacterial activity against methicillin-resistant Staphylococcus aureus clinical isolate M-2 incubated for 16 to 18 hrs CLSI based by microbroth dilution assay; type: functional; conditions: time 16-18 hrs
[8] = Hemolytic activity in sheep erythrocytes incubated for 1 hr by absorbance based assay; type: toxicity, cell-based, Ovis aries, Erythrocyte
Staphylococcus aureus [9] = assay: Antibacterial activity against methicillin-resistant Staphylococcus aureus clinical isolate M-4 incubated for 16 to 18 hrs CLSI based by microbroth dilution assay; type: functional; conditions: time 16-18 hrs
Staphylococcus aureus [10] = assay: Antibacterial activity against methicillin-resistant Staphylococcus aureus clinical isolate M-9 incubated for 16 to 18 hrs CLSI based by microbroth dilution assay; type: functional; conditions: time 16-18 hrs
[11] = Selectivity index, ratio of HC50 for sheep erythrocytes to MIC for Staphylococcus aureus ATCC 29213; type: toxicity; conditions: read-out: Selectivity Index
Staphylococcus aureus [12] = assay: Antibacterial activity against methicillin-resistant Staphylococcus aureus clinical isolate M-1 incubated for 16 to 18 hrs CLSI based by microbroth dilution assay; type: functional; conditions: time 16-18 hrs
Escherichia coli = assay: Antibacterial activity against Escherichia coli ATCC 25922 incubated for 16 to 18 hrs CLSI based by microbroth dilution assay; type: functional; conditions: time 16-18 hrs
Staphylococcus aureus [13] = assay: Antibacterial activity against Staphylococcus aureus ATCC 29213 incubated for 16 to 18 hrs CLSI based by microbroth dilution assay; type: functional; conditions: time 16-18 hrs

Structure (SMILES) | MIC (Staphylococcus aureus [1]) | MIC (Staphylococcus aureus [2]) | MIC (Staphylococcus aureus [3]) | MIC (Staphylococcus aureus [4]) | MIC (Staphylococcus aureus [5]) | MIC (Staphylococcus aureus [6]) | MIC (Staphylococcus aureus [7]) | HC50 at 1 h [8] | MIC (Staphylococcus aureus [9]) | MIC (Staphylococcus aureus [10]) | selectivity ratio [11] | MIC (Staphylococcus aureus [12]) | MIC (Escherichia coli) | MIC (Staphylococcus aureus [13])
CCCN(CCC)C(=O)C[N+](C)(C)CCCCCn1c(-c2ccc(N(C)C)cc2)nc2c3ccccc3c3ccccc3c21.[Br-] | 2 µg/mL | 2 µg/mL | 4 µg/mL | 2 µg/mL | 2 µg/mL | 8 µg/mL | 4 µg/mL | 99.4 µg/mL | 2 µg/mL | 2 µg/mL | 49.7 | 4 µg/mL | 128 µg/mL | 2 µg/mL
CCCCN(CCCC)C(=O)C[N+](C)(C)CCCCn1c(-c2ccc(N(C)C)cc2)nc2c3ccccc3c3ccccc3c21.[Br-] | 0.5 µg/mL | 1 µg/mL | 1 µg/mL | 0.5 µg/mL | 0.5 µg/mL | 2 µg/mL | 1 µg/mL | 79.5 µg/mL | 1 µg/mL | 1 µg/mL | 79.5 | 2 µg/mL | 64 µg/mL | 1 µg/mL
CCCN(CCC)C(=O)C[N+](C)(C)CCCn1c(-c2ccc(N(C)C)cc2)nc2c3ccccc3c3ccccc3c21.[Br-] | 32 µg/mL | 64 µg/mL | 32 µg/mL | 64 µg/mL | 16 µg/mL | 32 µg/mL | 32 µg/mL | > 640 µg/mL | 32 µg/mL | 32 µg/mL | > 20 | 32 µg/mL | > 128 µg/mL | 32 µg/mL
CCNC(=O)C[N+](C)(C)CCCCn1c(-c2ccc(N(C)C)cc2)nc2c3ccccc3c3ccccc3c21.[Br-] | 16 µg/mL | 32 µg/mL | 16 µg/mL | 16 µg/mL | 16 µg/mL | 16 µg/mL | 16 µg/mL | > 640 µg/mL | 16 µg/mL | 16 µg/mL | > 40 | 16 µg/mL | > 128 µg/mL | 16 µg/mL
CC(C)N(C(=O)C[N+](C)(C)CCCn1c(-c2ccc(N(C)C)cc2)nc2c3ccccc3c3ccccc3c21)C(C)C.[Br-] | 2 µg/mL | 4 µg/mL | 2 µg/mL | 2 µg/mL | 2 µg/mL | 2 µg/mL | 2 µg/mL | 68.5 µg/mL | 2 µg/mL | 2 µg/mL | 8.6 | 2 µg/mL | > 128 µg/mL | 2 µg/mL
CCCN(CCC)C(=O)C[N+](C)(C)CCCCn1c(-c2ccc(N(C)C)cc2)nc2c3ccccc3c3ccccc3c21.[Br-] | 4 µg/mL | 4 µg/mL | 4 µg/mL | 4 µg/mL | 4 µg/mL | 4 µg/mL | 4 µg/mL | 213 µg/mL | 4 µg/mL | 4 µg/mL | 53.3 | 4 µg/mL | 128 µg/mL | 4 µg/mL
CCCCN(CCCC)C(=O)C[N+](C)(C)CCCCCn1c(-c2ccc(N(C)C)cc2)nc2c3ccccc3c3ccccc3c21.[Br-] | 1 µg/mL | 1 µg/mL | 4 µg/mL | 1 µg/mL | 1 µg/mL | 2 µg/mL | 1 µg/mL | 225 µg/mL | 1 µg/mL | 1 µg/mL | 225 | 4 µg/mL | > 128 µg/mL | 1 µg/mL
CC(C)CN(CC(C)C)C(=O)C[N+](C)(C)CCCn1c(-c2ccc(N(C)C)cc2)nc2c3ccccc3c3ccccc3c21.[Br-] | 16 µg/mL | 16 µg/mL | 8 µg/mL | 16 µg/mL | 32 µg/mL | 8 µg/mL | 16 µg/mL | > 320 µg/mL | 4 µg/mL | 8 µg/mL | 40 | 8 µg/mL | 128 µg/mL | 8 µg/mL
CCCCCCNC(=O)C[N+](C)(C)CCCCn1c(-c2ccc(N(C)C)cc2)nc2c3ccccc3c3ccccc3c21.[Br-] | 2 µg/mL | 1 µg/mL | 2 µg/mL | 2 µg/mL | 1 µg/mL | 2 µg/mL | 2 µg/mL | 353 µg/mL | 2 µg/mL | 1 µg/mL | 176 | 2 µg/mL | 32 µg/mL | 2 µg/mL
CCNC(=O)C[N+](C)(C)CCCn1c(-c2ccc(N(C)C)cc2)nc2c3ccccc3c3ccccc3c21.[Br-] | 64 µg/mL | 64 µg/mL | 64 µg/mL | 64 µg/mL | 32 µg/mL | 64 µg/mL | 64 µg/mL | > 640 µg/mL | 32 µg/mL | 64 µg/mL | > 10 | 64 µg/mL | > 128 µg/mL | 64 µg/mL
O=C1C(=O)c2ccccc2-c2ccccc21 [9,10-PHENANTHRENEQUINONE] | 4 µg/mL (≈ 19.2 µM) | 2 µg/mL (≈ 9.61 µM) | 2 µg/mL (≈ 9.61 µM) | 4 µg/mL (≈ 19.2 µM) | 4 µg/mL (≈ 19.2 µM) | 4 µg/mL (≈ 19.2 µM) | 4 µg/mL (≈ 19.2 µM) | > 320 µg/mL | 4 µg/mL (≈ 19.2 µM) | 8 µg/mL (≈ 38.4 µM) | > 80 | 2 µg/mL (≈ 9.61 µM) | > 64 µg/mL | 4 µg/mL (≈ 19.2 µM)
CN(C)c1ccc(-c2nc3c4ccccc4c4ccccc4c3n2CCCC[N+](C)(C)CC(=O)N2CCSCC2)cc1.[Br-] | 16 µg/mL | 16 µg/mL | 16 µg/mL | 16 µg/mL | 16 µg/mL | 16 µg/mL | 16 µg/mL | > 640 µg/mL | 16 µg/mL | 16 µg/mL | > 40 | 16 µg/mL | > 128 µg/mL | 16 µg/mL
CCN(CC)C(=O)C[N+](C)(C)CCCn1c(-c2ccc(N(C)C)cc2)nc2c3ccccc3c3ccccc3c21.[Br-] | 64 µg/mL | 128 µg/mL | 64 µg/mL | 128 µg/mL | 64 µg/mL | 64 µg/mL | 64 µg/mL | > 640 µg/mL | 64 µg/mL | 64 µg/mL | > 10 | 64 µg/mL | > 128 µg/mL | 64 µg/mL
CCCCCCNC(=O)C[N+](C)(C)CCCCCn1c(-c2ccc(N(C)C)cc2)nc2c3ccccc3c3ccccc3c21.[Br-] | 2 µg/mL | 2 µg/mL | 8 µg/mL | 2 µg/mL | 1 µg/mL | 8 µg/mL | 4 µg/mL | 442 µg/mL | 1 µg/mL | 4 µg/mL | 221 | 8 µg/mL | 64 µg/mL | 2 µg/mL
CC(C)N(C(=O)C[N+](C)(C)CCCCCn1c(-c2ccc(N(C)C)cc2)nc2c3ccccc3c3ccccc3c21)C(C)C.[Br-] | 4 µg/mL | 2 µg/mL | 4 µg/mL | 4 µg/mL | 4 µg/mL | 4 µg/mL | 4 µg/mL | 688 µg/mL | 4 µg/mL | 4 µg/mL | 167 | 4 µg/mL | > 128 µg/mL | 4 µg/mL
C[C@@H](O)[C@H]1C(=O)N2C(C(=O)O)=C(S[C@@H]3CN[C@H](C(=O)N(C)C)C3)[C@H](C)[C@H]12 [MEROPENEM] |  |  |  |  |  |  |  |  |  |  |  |  | 0.063 µg/mL (≈ 0.164 µM) | 
CC(C)CN(CC(C)C)C(=O)C[N+](C)(C)CCCCCn1c(-c2ccc(N(C)C)cc2)nc2c3ccccc3c3ccccc3c21.[Br-] | 1 µg/mL | 1 µg/mL | 2 µg/mL | 1 µg/mL | 1 µg/mL | 2 µg/mL | 1 µg/mL | 247 µg/mL | 1 µg/mL | 1 µg/mL | 247 | 1 µg/mL | > 128 µg/mL | 1 µg/mL
CCCNC(=O)C[N+](C)(C)CCCCn1c(-c2ccc(N(C)C)cc2)nc2c3ccccc3c3ccccc3c21.[Br-] | 8 µg/mL | 4 µg/mL | 16 µg/mL | 8 µg/mL | 4 µg/mL | 16 µg/mL | 8 µg/mL | 290 µg/mL | 8 µg/mL | 8 µg/mL | 36.3 | 16 µg/mL | 64 µg/mL | 8 µg/mL
CCCNC(=O)C[N+](C)(C)CCCCCn1c(-c2ccc(N(C)C)cc2)nc2c3ccccc3c3ccccc3c21.[Br-] | 4 µg/mL | 4 µg/mL | 8 µg/mL | 8 µg/mL | 4 µg/mL | 8 µg/mL | 8 µg/mL | 735 µg/mL | 4 µg/mL | 4 µg/mL | 91.9 | 8 µg/mL | 64 µg/mL | 8 µg/mL
CCCCCNC(=O)C[N+](C)(C)CCCCn1c(-c2ccccc2)nc2c3ccccc3c3ccccc3c21.[Br-] | 4 µg/mL | 2 µg/mL | 2 µg/mL | 2 µg/mL | 2 µg/mL | 2 µg/mL | 4 µg/mL |  | 2 µg/mL | 2 µg/mL |  | 2 µg/mL | 32 µg/mL | 4 µg/mL

— ChEMBL document CHEMBL5512637, “Development of Membrane-Targeting Fluorescent 2-Phenyl-1H-phenanthro[9,10-d]imidazole-Antimicrobial Peptide Mimic Conjugates against Methicillin-Resistant Staphylococcus aureus” (J Med Chem, 2024)
